Here are results for 18 compounds from patent publication US12325697B2 (Nimbus Clio, Inc., priority 2021, dated 2025).

Assay [1] concerns the target Recombinant human c-Cbl (aa 47-435) (Homo sapiens (Human), UniProt P22681). Nature of the assay: c-Cbl Biochemical Assay (TR-FRET). The gist of the method: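 TR-FRET binding of UBE2D2-Ub-Bodipy (100 nM) to biotinylated c-Cbl (aa 47-435, 6 nM) via Streptavidin-Tb, measured after c-Cbl activation by Src-Zap70 with 0.5 mM ATP (60-90 min RT, 30 min compound preincubation). Ten-point half-log dilutions, 1% DMSO; IC50 by 4-parameter fit of normalized inhibition.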

Assay [2] has as its target Recombinant human Cbl-b (aa 36-427) (Homo sapiens (Human), UniProt Q13191). Nature of the assay: Cbl-b Biochemical Assay (TR-FRET). The settings on record: read-out: TR-FRET hCbl-b IC50. The gist of the method:
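IC50 from 4-parameter fit of % inhibition (DMSO max, reference-inhibitor min), duplicate ten-point series. Compound preincubated with 6 nM Cbl-b, then Src-Zap70 (1-2.5 nM)/0.5 mM ATP reaction 60 min RT; EDTA quench with labelled UBE2D2-Ub and streptavidin-terbium, 60 min, HTRF at 520 nm.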

Recombinant human c-Cbl (aa 47-435), sequence (P22681 47-435): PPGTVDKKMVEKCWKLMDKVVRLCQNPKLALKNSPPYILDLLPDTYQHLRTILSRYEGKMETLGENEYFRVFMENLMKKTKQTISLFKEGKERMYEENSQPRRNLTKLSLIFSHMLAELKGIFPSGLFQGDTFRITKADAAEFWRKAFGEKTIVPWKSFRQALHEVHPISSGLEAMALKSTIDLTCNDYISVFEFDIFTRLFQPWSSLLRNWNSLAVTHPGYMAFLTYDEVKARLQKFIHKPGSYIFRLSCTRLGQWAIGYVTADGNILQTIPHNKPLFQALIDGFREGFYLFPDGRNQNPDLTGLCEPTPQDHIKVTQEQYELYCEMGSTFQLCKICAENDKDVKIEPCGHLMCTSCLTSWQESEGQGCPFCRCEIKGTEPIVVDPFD
Recombinant human Cbl-b (aa 36-427), sequence (Q13191 36-427): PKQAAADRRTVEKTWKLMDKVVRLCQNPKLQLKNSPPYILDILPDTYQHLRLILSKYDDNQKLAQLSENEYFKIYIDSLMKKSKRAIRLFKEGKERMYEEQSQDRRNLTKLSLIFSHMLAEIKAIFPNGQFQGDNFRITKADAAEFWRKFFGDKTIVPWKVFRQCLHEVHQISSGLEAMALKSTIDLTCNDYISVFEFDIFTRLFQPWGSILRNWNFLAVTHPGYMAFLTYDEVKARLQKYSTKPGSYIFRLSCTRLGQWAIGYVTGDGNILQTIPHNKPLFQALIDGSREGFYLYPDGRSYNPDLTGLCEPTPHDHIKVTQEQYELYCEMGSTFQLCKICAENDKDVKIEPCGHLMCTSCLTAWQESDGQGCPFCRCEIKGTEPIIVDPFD

Take `CN(Cc1cc(F)c2c(c1)C(=O)N(c1cc(-c3ccc(C#N)cc3-c3nncn3C)cc(C3CC3)n1)C2)CC1(O)CCC1` [AMW-2, 4-{2-Cyclopropyl-6-[4-fluoro-6-({[(1-hydroxycyclobutyl)methyl](methyl)amino}methyl)-1-oxo-3H-isoindol-2-yl]pyridin-4-yl}-3-(4-methyl-1,2,4-triazol-3-yl)benzonitrile]: the half-inhibitory concentration (IC50) in assay [1] and in assay [2] was no more than 0.2 µM each time.
On to `Cn1cnnc1-c1cc(C#N)ccc1-c1cc(C2CC2)nc(N2Cc3c(F)cc(CNCC(F)(F)F)cc3C2=O)c1` [ALW-1, -[2-Cyclopropyl-6-(4-fluoro-1-oxo-6-{[(2,2,2-trifluoroethyl)amino]methyl}-3H-isoindol-2-yl)pyridin-4-yl]-3-(4-methyl-1,2,4-triazol-3-yl)benzonitrile], for which the IC50 in assay [1] and in assay [2] was no more than 0.2 µM each time.
`Cn1cnnc1-c1cc(C#N)ccc1-c1cc(C2CC2)nc(N2Cc3ccc(CNCC(C)(C)F)cc3C2=O)c1` [ALD-2, 4-[2-Cyclopropyl-6-(6-{[(2-fluoro-2-methylpropyl)amino]methyl}-1-oxo-3H-isoindol-2-yl)pyridin-4-yl]-3-(4-methyl-1,2,4-triazol-3-yl)benzonitrile]: the IC50 in assay [1] and in assay [2] was no more than 0.2 µM throughout.
In the case of `CCOc1cc(-c2ccc(F)cc2-c2nncn2C)cc(N2Cc3ccc(CN(C)CC4(O)CCC4)cc3C2=O)n1` [AJT-1, 2-{6-Ethoxy-4-[4-fluoro-2-(4-methyl-1,2,4-triazol-3-yl)phenyl]pyridin-2-yl}-6-({[(1-hydroxycyclobutyl)methyl] (methyl)amino}methyl)-3H-isoindol-1-one], the IC50 in assay [1] and in assay [2] was no more than 0.2 µM each time.
As for `Cn1cnnc1-c1cc(C#N)ccc1-c1cc(C2CC2)nc(N2Cc3ccc(CNCC4CC(F)(F)C4)cc3C2=O)c1` [AKC-2, 4-{2-Cyclopropyl-6-[6-({[(3,3-difluorocyclobutyl)methyl]amino}methyl)-1-oxo-3H-isoindol-2-yl]pyridin-4-yl}-3-(4-methyl-1,2,4-triazol-3-yl)benzonitrile], the IC50 in assay [1] and in assay [2] was no more than 0.2 µM throughout.
As for `CN(C)C(=O)CN(Cc1ccc2c(c1)C(=O)N(c1cc(-c3ccc(C#N)cc3-c3nncn3C)cc(C3CC3)n1)C2)CC1COC1` [AON-2, 2-{[(2-{4-[4-Cyano-2-(4-methyl-1,2,4-triazol-3-yl)phenyl]-6-cyclopropylpyridin-2-yl}-3-oxo-1H-isoindol-5-yl)methyl](oxetan-3-ylmethyl)amino}-N,N-dimethylacetamide], the IC50 in assay [1] and in assay [2] was no more than 0.2 µM throughout.
Take `COCCNCc1cc2c(cc1F)CN(c1cc(-c3ccc(C#N)cc3-c3nncn3C)cc(C3CC3)n1)C2=O` [AIH-2, 4-(2-Cyclopropyl-6-(5-fluoro-6-(((2-methoxyethyl)amino)methyl)-1-oxoisoindolin-2-yl)pyridin-4-yl)-3-(4-methyl-4H-1,2,4-triazol-3-yl)benzonitrile]: the IC50 in assay [1] and in assay [2] was no more than 0.2 µM throughout.
With `CCOc1cc(-c2ccc(C#N)cc2-c2nncn2C)cc(N2Cc3ccc(CO)cc3C2=O)n1` [AKX-1, 4-{2-Ethoxy-6-[6-(hydroxymethyl)-1-oxo-3H-isoindol-2-yl]pyridin-4-yl}-3-(4-methyl-1,2,4-triazol-3-yl)benzonitrile], the IC50 is 0.2 to 1 µM in assay [1] and no more than 0.2 µM in assay [2].
With `Cn1cnnc1-c1cc(C#N)ccc1-c1cc(C2CC2)cc(N2Cc3ccc(CNCC4CC4)cc3C2=O)c1` [AJR-1, 3′-Cyclopropyl-5′-(6-{[(cyclopropylmethyl)amino]methyl}-1-oxo-3H-isoindol-2-yl)-2-(4-methyl-1,2,4-triazol-3-yl)-[1,1′-biphenyl]-4-carbonitrile], the half-maximal inhibitory concentration (IC50) in assay [1] and in assay [2] was no more than 0.2 µM in each case.
Regarding `Cn1cnnc1-c1cc(C#N)ccc1-c1cc(C2CC2)nc(N2Cc3c(F)cc(CNCCC(F)F)cc3C2=O)c1` [AME-2, 4-[2-Cyclopropyl-6-(6-{[(3,3-difluoropropyl)amino]methyl}-4-fluoro-1-oxo-3H-isoindol-2-yl)pyridin-4-yl]-3-(4-methyl-1,2,4-triazol-3-yl)benzonitrile], the IC50 in assay [1] and in assay [2] was no more than 0.2 µM in each case.
For the compound `COC(F)(F)CNCc1cc(F)c2c(c1)C(=O)N(c1cc(-c3ccc(C#N)cc3-c3nncn3C)cc(C3CC3)n1)C2` [ALV-4, 4-[2-Cyclopropyl-6-(6-{[(2,2-difluoro-2-methoxyethyl)amino]methyl}-4-fluoro-1-oxo-3H-isoindol-2-yl)pyridin-4-yl]-3-(4-methyl-1,2,4-triazol-3-yl)benzonitrile], the IC50 in assay [1] and in assay [2] was no more than 0.2 µM in each case.
Regarding `CN(Cc1ccc2c(c1)C(=O)N(c1cc(-c3ccc(C#N)cc3-c3nncn3C)cc(C3CC3)n1)C2)CC(C)(C)O` [AMH-1, 4-[2-Cyclopropyl-6-(6-{[(2-hydroxy-2-methylpropyl)(methyl)amino]methyl}-1-oxo-3H-isoindol-2-yl)pyridin-4-yl]-3-(4-methyl-1,2,4-triazol-3-yl)benzonitrile], the half-maximal inhibitory concentration (IC50) in assay [1] and in assay [2] was no more than 0.2 µM in each case.
For `Cn1cnnc1-c1cc(C#N)ccc1-c1cc(C2CC2)nc(N2Cc3c(F)cc(CN4CCC[C@H]4CF)cc3C2=O)c1` [APA-2, 4-[2-Cyclopropyl-6-(4-fluoro-6-{[(2S)-2-(fluoromethyl)pyrrolidin-1-yl]methyl}-1-oxo-3H-isoindol-2-yl)pyridin-4-yl]-3-(4-methyl-1,2,4-triazol-3-yl)benzonitrile], the IC50 in assay [1] and in assay [2] was no more than 0.2 µM in each case.
Regarding `Cn1cnnc1-c1cc(C#N)ccc1-c1cc(C2CC2)nc(N2Cc3ccc(CN4CC(F)C4)cc3C2=O)c1` [ALJ-1, 4-(2-Cyclopropyl-6-{6-[(3-fluoroazetidin-1-yl)methyl]-1-oxo-3H-isoindol-2-yl}pyridin-4-yl)-3-(4-methyl-1,2,4-triazol-3-yl)benzonitrile], the IC50 in assay [1] and in assay [2] was no more than 0.2 µM each time.
For `CC(=O)c1ccc2c(c1)C(=O)N(c1cc(-c3ccc(C#N)cc3-c3nncn3C)cc(C3CC3)n1)C2` [AJH-3, 4-(2-(6-Acetyl-1-oxoisoindolin-2-yl)-6-cyclopropylpyridin-4-yl)-3-(4-methyl-4H-1,2,4-triazol-3-yl)benzonitrile], the IC50 in assay [1] and in assay [2] was no more than 0.2 µM throughout.
With `Cn1cnnc1-c1cc(C#N)ccc1-c1cc(C2CC2)nc(N2Cc3ccc(CN4CC5CC5C4)cc3C2=O)c1` (stereo not drawn) [ANA-1, 4-[2-(6-{3-Azabicyclo[3.1.0]hexan-3-ylmethyl}-1-oxo-3H-isoindol-2-yl)-6-cyclopropylpyridin-4-yl]-3-(4-methyl-1,2,4-triazol-3-yl)benzonitrile], the IC50 in assay [1] and in assay [2] was no more than 0.2 µM throughout.
As to `Cn1cnnc1-c1cc(C#N)ccc1-c1cc(C2CC2)nc(N2Cc3ccc(O)cc3C2=O)c1` [AJL-2, 4-(2-cyclopropyl-6-(6-hydroxy-1-oxoisoindolin-2-yl)pyridin-4-yl)-3-(4-methyl-4H-1,2,4-triazol-3-yl)benzonitrile], the IC50 in assay [1] and in assay [2] was no more than 0.2 µM each time.
Regarding `Cn1cnnc1-c1cc(C#N)ccc1-c1cc(C2CC2)nc(N2Cc3ccc(CNCC45CC(C4)C5)cc3C2=O)c1` [AKD-2, 4-(2-{6-[({Bicyclo[1.1.1]pentan-1-ylmethyl}amino)methyl]-1-oxo-3H-isoindol-2-yl}-6-cyclopropylpyridin-4-yl)-3-(4-methyl-1,2,4-triazol-3-yl)benzonitrile], the IC50 in assay [1] and in assay [2] was no more than 0.2 µM in each case.
